Measured values published in ChEMBL document CHEMBL5365497, “Developing Novel Coumarin-Containing Azoles Antifungal Agents by the Scaffold Merging Strategy for Treating Azole-Resistant Candidiasis” (J Med Chem, 2023).
Converted amounts (≈) assume the structure as drawn. The source made the active and inactive calls. The calls are words filed in the database; no cut-off is given here.

Key:
Candida albicans [1] = assay: Antibiofilm activity against fluconazole-resistant Candida albicans 904 incubated for 24 hrs by XTT reduction assay; assay type: functional, organism-based; details: dose <= 128.0 µg/ml
Candida albicans [2] = assay: Antifungal activity against fluconazole-resistant Candida albicans CaR assessed as fungal growth inhibition by CLSI based microdilution method; assay type: functional
Candida albicans [3] = assay: Antifungal activity against fluconazole-resistant Candida albicans 904 assessed as inhibition of yeast to hypha morphological transition at 16 ug/ml incubated for 4 hrs by inverted microscopy; assay type: functional, organism-based; details: dose 16.0 µg/ml
Candida parapsilosis = assay: Antifungal activity against Candida parapsilosis assessed as fungal growth inhibition by CLSI based microdilution method; assay type: functional; details: Lodderomyces parapsilosis
[4] = molecular target: T1, Lanosterol 14-alpha demethylase (Candida albicans (strain SC5314 / ATCC MYA-2876) (Yeast), UniProt P10613); assay: Inhibition of CYP51 in Candida albicans SC5314 assessed as increase in obtusifoliol level at 0.03125 ug/ml incubated for 24 hrs by GC-MS analysis; details: at 0.03125 µg/mL
T1 sequence (P10613 whole entry): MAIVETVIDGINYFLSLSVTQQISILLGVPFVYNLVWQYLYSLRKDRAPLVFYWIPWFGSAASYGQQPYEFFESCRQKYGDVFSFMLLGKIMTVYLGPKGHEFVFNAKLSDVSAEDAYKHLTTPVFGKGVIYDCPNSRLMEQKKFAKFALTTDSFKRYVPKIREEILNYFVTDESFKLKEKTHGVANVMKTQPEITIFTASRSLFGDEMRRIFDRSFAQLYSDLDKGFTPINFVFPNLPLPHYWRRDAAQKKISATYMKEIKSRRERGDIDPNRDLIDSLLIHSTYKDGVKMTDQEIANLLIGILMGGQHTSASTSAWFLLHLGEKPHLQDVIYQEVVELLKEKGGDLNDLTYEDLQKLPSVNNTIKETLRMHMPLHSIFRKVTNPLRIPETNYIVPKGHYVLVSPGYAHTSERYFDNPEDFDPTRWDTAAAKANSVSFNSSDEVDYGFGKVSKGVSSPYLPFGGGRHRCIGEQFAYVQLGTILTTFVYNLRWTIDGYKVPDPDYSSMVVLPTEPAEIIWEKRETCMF

Candida tropicalis = assay: Antifungal activity against Candida tropicalis assessed as fungal growth inhibition by CLSI based microdilution method; assay type: functional
Pichia kudriavzevii = assay: Antifungal activity against Pichia kudriavzevii assessed as fungal growth inhibition by CLSI based microdilution method; assay type: functional
Candida albicans [5] = assay: Antifungal activity against fluconazole-resistant Candida albicans 904 assessed as fungal growth inhibition by CLSI based microdilution method; assay type: functional
Candida albicans [6] = assay: Antifungal activity against Candida albicans CPCC400616 assessed as fungal growth inhibition by CLSI based microdilution method; assay type: functional
Candida albicans [7] = assay: Antifungal activity against fluconazole-resistant Candida albicans 901 assessed as fungal growth inhibition by CLSI based microdilution method; assay type: functional
Candida albicans [8] = assay: Antifungal activity against fluconazole-resistant Candida albicans 904 assessed as reduction in CPH1 expression at 16 ug/ml incubated for 12 hrs by RT-PCR analysis; assay type: functional, organism-based; details: dose 16.0 µg/ml
Candida albicans [9] = assay: Antifungal activity against Candida albicans SC5314 assessed as fungal growth inhibition by CLSI based microdilution method; assay type: functional
Candida albicans [10] = assay: Antifungal activity against Candida albicans CPCC400616 assessed as reduction in TEC1 expression at 2 ug/ml incubated for 12 hrs by RT-PCR analysis; assay type: functional, organism-based; details: dose 2.0 µg/ml
Candida albicans [11] = assay: Antifungal activity against fluconazole-resistant Candida albicans 904 assessed as decrease in ERG11 expression at 16 ug/ml measured after 16 hrs by RT-PCR analysis; assay type: functional, organism-based; details: dose 16.0 µg/ml
Candida albicans [12] = assay: Antifungal activity against Candida albicans CPCC400616 assessed as reduction in EFG1 expression at 2 ug/ml incubated for 12 hrs by RT-PCR analysis; assay type: functional, organism-based; details: dose 2.0 µg/ml
Candida albicans [13] = assay: Antifungal activity against fluconazole-resistant Candida albicans 904 assessed as reduction in ALS3 expression at 16 ug/ml incubated for 12 hrs by RT-PCR analysis; assay type: functional, organism-based; details: dose 16.0 µg/ml
Candida albicans [14] = assay: Antifungal activity against Candida albicans CPCC400616 assessed as reduction in CPH1 expression at 2 ug/ml incubated for 12 hrs by RT-PCR analysis; assay type: functional, organism-based; details: dose 2.0 µg/ml
Nakaseomyces glabratus = assay: Antifungal activity against Candida glabrata assessed as fungal growth inhibition by CLSI based microdilution method; assay type: functional
[15] = Metabolic stability in mouse liver microsomes assessed as half life incubated for 5 to 60 mins by LC-MS/MS analysis; assay type: ADME, Microsome; details: time 5-60 min
Candida albicans [16] = assay: Antifungal activity against fluconazole-resistant Candida albicans 904 assessed as decrease in MDR1 expression at 16 ug/ml measured after 16 hrs by RT-PCR analysis; assay type: functional, organism-based; details: dose 16.0 µg/ml
Candida albicans [17] = assay: Antifungal activity against fluconazole-resistant Candida albicans 904 assessed as reduction in EFG1 expression at 16 ug/ml incubated for 12 hrs by RT-PCR analysis; assay type: functional, organism-based; details: dose 16.0 µg/ml
[18] = Stability in mouse plasma assessed as compound remaining at 1 uM measured for 180 mins by LC-MS/MS analysis; assay type: ADME, cell-free; details: read-out: Stability
[19] = molecular target: T1, Lanosterol 14-alpha demethylase; assay: Inhibition of CYP51 in Candida albicans SC5314 assessed as increase in eburicol level at 0.03125 ug/ml incubated for 24 hrs by GC-MS analysis; details: at 0.03125 µg/mL
Candida albicans [20] = assay: Antibiofilm activity against Candida albicans CPCC400616 incubated for 24 hrs by XTT reduction assay; assay type: functional, organism-based; details: dose <= 128.0 µg/ml
[21] = molecular target: T1, Lanosterol 14-alpha demethylase; assay: Inhibition of CYP51 in Candida albicans SC5314 assessed as increase in lanosterol level at 0.03125 ug/ml incubated for 24 hrs by GC-MS analysis; details: at 0.03125 µg/mL
Candida albicans [22] = assay: Antifungal activity against Candida albicans CPCC400616 assessed as reduction in ALS3 expression at 2 ug/ml incubated for 12 hrs by RT-PCR analysis; assay type: functional, organism-based; details: dose 2.0 µg/ml
[23] = Stability in mouse plasma assessed as half life at 1 uM measured for 180 mins by LC-MS/MS analysis; assay type: ADME, cell-free
Candida albicans [24] = assay: Antifungal activity against Candida albicans CPCC400616 assessed as inhibition of yeast to hypha morphological transition at 2 ug/ml incubated for 4 hrs by inverted microscopy; assay type: functional, organism-based; details: dose 2.0 µg/ml
Candida albicans [25] = assay: Antifungal activity against fluconazole-resistant Candida albicans 17# assessed as fungal growth inhibition by CLSI based microdilution method; assay type: functional
[26] = Cytotoxicity against mouse J774.A1 cells assessed as cell growth inhibition by MTT assay; assay type: toxicity, cell-based
Candida albicans [27] = assay: Antifungal activity against fluconazole-resistant Candida albicans 904 assessed as decrease in CDR1 expression at 16 ug/ml measured after 16 hrs by RT-PCR analysis; assay type: functional, organism-based; details: dose 16.0 µg/ml
Candida albicans [28] = assay: Antifungal activity against fluconazole-resistant Candida albicans 904 assessed as decrease in CDR2 expression at 16 ug/ml measured after 16 hrs by RT-PCR analysis; assay type: functional, organism-based; details: dose 16.0 µg/ml
Candida albicans [29] = assay: Antifungal activity against fluconazole-resistant Candida albicans 632 assessed as fungal growth inhibition by CLSI based microdilution method; assay type: functional
Cryptococcus neoformans = assay: Antifungal activity against Cryptococcus neoformans assessed as fungal growth inhibition by CLSI based microdilution method; assay type: functional
Candida albicans [30] = assay: Induction of ROS production in fluconazole-resistant Candida albicans 904 at 64 ug/ml incubated for 30 mins by fluorescence microscopy; assay type: functional, organism-based; details: dose 64.0 µg/ml
Candida albicans [31] = assay: Antifungal activity against fluconazole-resistant Candida albicans 904 assessed as reduction in TEC1 expression at 16 ug/ml incubated for 12 hrs by RT-PCR analysis; assay type: functional, organism-based; details: dose 16.0 µg/ml
[32] = molecular target: T1, Lanosterol 14-alpha demethylase; assay: Inhibition of CYP51 in Candida albicans SC5314 assessed as ergosterol level at 0.03125 ug/ml incubated for 24 hrs by GC-MS analysis (reference value: 97.58 %); set-up: scale not given: the % may be the effect or the level left; details: at 0.03125 µg/mL
Cytochrome P450 2C9 = Cytochrome P450 2C9 (Homo sapiens, UniProt P11712); assay: Inhibition of CYP2C9 in human liver microsomes using diclofenac as substrate preincubated for 5 mins followed by NADPH addition by LC-MS/MS analysis; assay type: ADME, Microsome
Chain of Cytochrome P450 2C9 (P11712 whole entry): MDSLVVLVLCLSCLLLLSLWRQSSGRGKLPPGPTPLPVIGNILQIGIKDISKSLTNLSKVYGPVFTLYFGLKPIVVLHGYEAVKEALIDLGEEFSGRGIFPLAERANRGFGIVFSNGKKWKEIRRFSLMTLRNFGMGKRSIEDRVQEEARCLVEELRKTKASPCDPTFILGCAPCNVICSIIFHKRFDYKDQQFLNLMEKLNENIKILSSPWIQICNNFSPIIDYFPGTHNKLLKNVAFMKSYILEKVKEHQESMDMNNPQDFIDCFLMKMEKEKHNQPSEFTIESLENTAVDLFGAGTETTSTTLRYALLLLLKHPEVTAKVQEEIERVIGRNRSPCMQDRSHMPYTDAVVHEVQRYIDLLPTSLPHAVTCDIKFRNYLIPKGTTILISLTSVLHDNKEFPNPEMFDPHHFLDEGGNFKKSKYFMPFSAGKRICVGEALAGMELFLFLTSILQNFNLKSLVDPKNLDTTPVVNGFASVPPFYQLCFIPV

Cytochrome P450 2D6 = Cytochrome P450 2D6 (Homo sapiens, UniProt P10635); assay: Inhibition of CYP2D6 in human liver microsomes using dextromethorphan as substrate preincubated for 5 mins followed by NADPH addition by LC-MS/MS analysis; assay type: ADME, Microsome
Chain of Cytochrome P450 2D6 (P10635 whole entry): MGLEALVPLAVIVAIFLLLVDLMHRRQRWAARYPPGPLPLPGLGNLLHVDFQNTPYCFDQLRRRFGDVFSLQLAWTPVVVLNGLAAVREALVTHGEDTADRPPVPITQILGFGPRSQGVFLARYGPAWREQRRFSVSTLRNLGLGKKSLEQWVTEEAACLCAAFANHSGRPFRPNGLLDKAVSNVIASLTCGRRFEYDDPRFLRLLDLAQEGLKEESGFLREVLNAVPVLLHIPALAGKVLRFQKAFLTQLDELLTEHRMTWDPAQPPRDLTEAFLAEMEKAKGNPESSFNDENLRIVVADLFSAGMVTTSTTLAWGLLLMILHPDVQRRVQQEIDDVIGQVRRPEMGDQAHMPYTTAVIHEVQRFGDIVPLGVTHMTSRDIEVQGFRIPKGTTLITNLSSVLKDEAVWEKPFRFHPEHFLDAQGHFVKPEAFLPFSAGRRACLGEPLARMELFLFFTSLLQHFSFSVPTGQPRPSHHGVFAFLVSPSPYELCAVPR

Cytochrome P450 1A2 = molecular target: T2, Cytochrome P450 1A2 (Homo sapiens, UniProt P05177); assay: Inhibition of CYP1A2 in human liver microsomes using phenacetin as substrate preincubated for 5 mins followed by NADPH addition by LC-MS/MS analysis; assay type: ADME, Microsome
T2 sequence (P05177 whole entry): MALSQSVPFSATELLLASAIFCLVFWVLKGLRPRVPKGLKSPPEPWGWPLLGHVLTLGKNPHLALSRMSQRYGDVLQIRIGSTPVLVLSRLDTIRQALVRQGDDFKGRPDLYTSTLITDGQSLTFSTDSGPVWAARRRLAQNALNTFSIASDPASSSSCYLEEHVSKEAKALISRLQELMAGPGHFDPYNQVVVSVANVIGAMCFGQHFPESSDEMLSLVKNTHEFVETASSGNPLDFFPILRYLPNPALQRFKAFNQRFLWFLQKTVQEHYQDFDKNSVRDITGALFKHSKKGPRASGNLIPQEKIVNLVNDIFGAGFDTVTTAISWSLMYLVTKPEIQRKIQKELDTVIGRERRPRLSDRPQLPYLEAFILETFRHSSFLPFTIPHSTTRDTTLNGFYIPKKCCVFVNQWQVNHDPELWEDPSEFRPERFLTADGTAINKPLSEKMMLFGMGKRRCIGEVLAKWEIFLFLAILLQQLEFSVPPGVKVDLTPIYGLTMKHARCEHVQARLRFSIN

## O=c1oc2ccccc2cc1COC(Cn1ccnc1)c1ccc(Cl)cc1Cl (stereo not given)
Candida albicans [1]
  Activity: Dose-Dependent Effect
Candida albicans [2]
  MIC: 0.5 µg/mL (≈ 1.2 µM)
Candida albicans [3]
  inhibition: Active
Candida parapsilosis
  MIC: < 0.25 µg/mL
[4]
  inhibition (INH): Active
Candida tropicalis
  MIC: 0.5 µg/mL (≈ 1.2 µM)
Pichia kudriavzevii
  MIC: 0.25 µg/mL (≈ 0.602 µM)
Candida albicans [5]
  MIC: 2 µg/mL (≈ 4.82 µM)
Candida albicans [6]
  MIC: 0.06 µg/mL (≈ 0.144 µM)
Candida albicans [7]
  MIC: 4 µg/mL (≈ 9.63 µM)
Candida albicans [8]
  Activity: Active
Candida albicans [9]
  MIC: 0.03 µg/mL (≈ 0.0722 µM)
Candida albicans [10]
  Activity: Active
Candida albicans [11]
  Activity: Active
Candida albicans [12]
  Activity: Active
Candida albicans [13]
  Activity: Active
Candida albicans [14]
  Activity: Active
Nakaseomyces glabratus
  MIC: 1 µg/mL (≈ 2.41 µM)
[15]
  half-life: 2.8 min
Candida albicans [16]
  Activity: Active
Candida albicans [17]
  Activity: Active
[18]
  remaining at 3 h, 1 µM: 2.2%
[19]
  inhibition (INH): Active
Candida albicans [20]
  Activity: Dose-Dependent Effect
[21]
  inhibition (INH): Active
Candida albicans [22]
  Activity: Active
[23]
  half-life at 1 µM: 34 min
Candida albicans [24]
  inhibition: Active
Candida albicans [25]
  MIC: 8 µg/mL (≈ 19.3 µM)
[26]
  IC50: 24400 nM
Candida albicans [27]
  Activity: Active
Candida albicans [28]
  Activity: Active
Candida albicans [29]
  MIC: 8 µg/mL (≈ 19.3 µM)
Cryptococcus neoformans
  MIC: 0.015 µg/mL (≈ 0.0361 µM)
Candida albicans [30]
  Activity: Active
Candida albicans [31]
  Activity: Active
[32]
  Activity: 16.17%

## Clc1ccc(COC(Cn2ccnc2)c2ccc(Cl)cc2Cl)c(Cl)c1 (stereo not given) [MICONAZOLE]
Candida parapsilosis
  MIC: 0.25 µg/mL (≈ 0.601 µM)
Candida tropicalis
  MIC: 1 µg/mL (≈ 2.4 µM)
Pichia kudriavzevii
  MIC: 0.5 µg/mL (≈ 1.2 µM)
Candida albicans [6]
  MIC: 0.25 µg/mL (≈ 0.601 µM)
Candida albicans [9]
  MIC: 0.03 µg/mL (≈ 0.0721 µM)
Nakaseomyces glabratus
  MIC: 0.5 µg/mL (≈ 1.2 µM)
Cytochrome P450 2C9
  IC50: 115 nM
[18]
  remaining at 3 h, 1 µM: 94.9%
[23]
  half-life at 1 µM: > 360 min
Cytochrome P450 2D6
  IC50: 875 nM
[26]
  IC50: 22200 nM
Cryptococcus neoformans
  MIC: 0.25 µg/mL (≈ 0.601 µM)
Cytochrome P450 1A2
  IC50: 2620 nM
